Test results taken from US9637472B2, “Substituted 6,5-fused bicyclic heteroaryl compounds” (Epizyme, Inc., priority 2011, dated 2017).

Molecular target: EZH2 (Homo sapiens (Human), UniProt Q15910)
Assay: PRC2 enzyme assay on peptide substrates
Assay type: biochemical
Settings: PRC2 enzyme assays on peptide substrates; 4 nM enzyme, 30 min preincubation at 25° C.; read-out: EZH2 IC50

Sequence of EZH2 (Q15910 other isoform, or with tags, fused parts or gaps): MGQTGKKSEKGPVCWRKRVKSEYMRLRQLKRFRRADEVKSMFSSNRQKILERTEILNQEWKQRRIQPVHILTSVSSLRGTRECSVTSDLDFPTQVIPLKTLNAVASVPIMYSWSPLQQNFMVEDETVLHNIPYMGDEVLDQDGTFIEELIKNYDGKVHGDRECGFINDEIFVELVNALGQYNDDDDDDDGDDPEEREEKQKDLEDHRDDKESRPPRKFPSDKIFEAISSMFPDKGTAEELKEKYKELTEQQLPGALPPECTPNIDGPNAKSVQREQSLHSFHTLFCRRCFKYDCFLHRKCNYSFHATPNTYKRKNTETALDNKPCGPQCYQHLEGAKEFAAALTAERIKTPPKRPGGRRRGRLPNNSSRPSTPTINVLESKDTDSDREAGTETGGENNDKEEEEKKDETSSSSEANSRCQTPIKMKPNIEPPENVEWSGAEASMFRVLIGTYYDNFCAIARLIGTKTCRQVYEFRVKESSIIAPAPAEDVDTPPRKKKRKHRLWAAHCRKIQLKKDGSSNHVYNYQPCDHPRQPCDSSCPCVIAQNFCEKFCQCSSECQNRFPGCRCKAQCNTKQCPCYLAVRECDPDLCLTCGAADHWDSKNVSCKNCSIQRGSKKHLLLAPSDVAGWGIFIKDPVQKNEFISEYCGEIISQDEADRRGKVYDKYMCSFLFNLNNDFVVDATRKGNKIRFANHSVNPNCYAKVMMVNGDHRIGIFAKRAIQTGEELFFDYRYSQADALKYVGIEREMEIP
Sequence of EZH2 (O75530 whole entry partner): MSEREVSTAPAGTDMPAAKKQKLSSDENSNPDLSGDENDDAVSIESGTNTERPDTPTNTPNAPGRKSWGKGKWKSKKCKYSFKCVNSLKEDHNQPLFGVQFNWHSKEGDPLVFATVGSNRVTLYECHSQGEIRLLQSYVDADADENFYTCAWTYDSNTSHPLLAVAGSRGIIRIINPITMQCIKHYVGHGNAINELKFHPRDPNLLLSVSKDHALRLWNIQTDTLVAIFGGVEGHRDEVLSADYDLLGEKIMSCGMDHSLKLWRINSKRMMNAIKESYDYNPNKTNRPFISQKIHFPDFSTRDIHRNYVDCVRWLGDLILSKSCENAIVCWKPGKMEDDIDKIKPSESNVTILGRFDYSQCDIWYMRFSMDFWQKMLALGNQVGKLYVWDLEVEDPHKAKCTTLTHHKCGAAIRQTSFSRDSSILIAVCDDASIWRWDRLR
Sequence of EZH2 (Q15022 whole entry partner): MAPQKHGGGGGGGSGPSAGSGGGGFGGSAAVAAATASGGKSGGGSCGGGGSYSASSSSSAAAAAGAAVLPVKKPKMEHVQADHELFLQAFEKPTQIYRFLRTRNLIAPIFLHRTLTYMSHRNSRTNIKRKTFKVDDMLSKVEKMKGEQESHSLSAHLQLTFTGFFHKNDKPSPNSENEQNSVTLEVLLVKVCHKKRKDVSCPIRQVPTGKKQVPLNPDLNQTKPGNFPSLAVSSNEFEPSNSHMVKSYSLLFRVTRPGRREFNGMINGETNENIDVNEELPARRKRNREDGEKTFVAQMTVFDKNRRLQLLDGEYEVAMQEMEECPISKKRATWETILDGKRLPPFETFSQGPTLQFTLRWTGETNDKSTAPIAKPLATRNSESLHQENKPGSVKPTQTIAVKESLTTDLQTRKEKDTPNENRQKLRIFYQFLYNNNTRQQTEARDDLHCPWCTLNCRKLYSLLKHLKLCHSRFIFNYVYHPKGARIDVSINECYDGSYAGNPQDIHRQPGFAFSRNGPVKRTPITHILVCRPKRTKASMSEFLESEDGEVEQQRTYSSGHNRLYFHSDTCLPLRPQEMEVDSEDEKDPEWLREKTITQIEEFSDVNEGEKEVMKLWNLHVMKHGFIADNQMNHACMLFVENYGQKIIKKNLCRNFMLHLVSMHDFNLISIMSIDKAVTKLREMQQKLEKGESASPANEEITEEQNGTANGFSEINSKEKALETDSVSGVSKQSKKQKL
Sequence of EZH2 (Q09028 whole entry partner): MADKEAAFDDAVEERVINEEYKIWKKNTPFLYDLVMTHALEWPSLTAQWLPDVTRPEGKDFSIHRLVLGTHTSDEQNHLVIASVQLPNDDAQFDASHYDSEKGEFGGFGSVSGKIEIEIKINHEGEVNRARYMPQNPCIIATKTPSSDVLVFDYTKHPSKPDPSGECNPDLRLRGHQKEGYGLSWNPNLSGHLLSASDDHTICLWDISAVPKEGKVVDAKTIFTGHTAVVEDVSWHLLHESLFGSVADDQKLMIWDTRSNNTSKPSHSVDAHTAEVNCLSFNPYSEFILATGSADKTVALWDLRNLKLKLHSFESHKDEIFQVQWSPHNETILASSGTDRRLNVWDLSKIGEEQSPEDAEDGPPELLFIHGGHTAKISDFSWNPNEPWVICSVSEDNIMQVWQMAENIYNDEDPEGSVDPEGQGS

Molecule | IC50
Cc1cc(C)c(CNC(=O)c2cc(C3=CC(C)(C)NC(C)(C)C3)nc3c2cnn3C)c(=O)[nH]1 [Compound B-153] | 10000 to 50000 nM
Cc1cc(C)c(CNC(=O)c2cc(-c3cnn(CCN4CCOCC4)c3)cc3c2cnn3C2CCN(C(=O)C(C)(C)C)CC2)c(=O)[nH]1 [Compound C-34] | < 300 nM
Cc1cc(CN2CCC[C@@H]2C(N)=O)c(CNC(=O)c2cc(Br)cc3c2cnn3C2CCCC2)c(=O)[nH]1 [Compound D-22] | 1000 to 3000 nM
Cc1cc(C)c(CNC(=O)c2cc(C3=CCOCC3)nc3c2cnn3C(C)C)c(=O)[nH]1 [Compound B-80] | 300 to 1000 nM
Cc1cc(C)c(CNC(=O)c2cc(-c3cccc(COCCN(C)C)c3)cc3c2cnn3C2CCCC2)c(=O)[nH]1 [Compound C-22] | < 300 nM
CCOc1cc(C(=O)NCc2c(C)cc(C)[nH]c2=O)c2cnn(C(C)C)c2n1 [Compound B-112] | 1000 to 3000 nM
Cc1cc(C)c(CNC(=O)c2cccc3c2ccn3C(C)C)c(=O)[nH]1 [Compound E-1] | 1000 to 3000 nM
Cc1cc(C)c(CNC(=O)c2cc(C3=CCN(C4CCN(S(C)(=O)=O)CC4)CC3)nc3c2cnn3C(C)C)c(=O)[nH]1 [Compound B-40] | 300 to 1000 nM
Cc1cc(CN(C)CCN(C)C)c(CNC(=O)c2cccc3c2cnn3C2CCCC2)c(=O)[nH]1 [Compound D-75] | 1000 to 3000 nM
Cc1cc(C)c(CNC(=O)c2cc(C3=CC(C)(C)NC(C)(C)C3)nc3c2cnn3CCO)c(=O)[nH]1 [Compound B-146] | 10000 to 50000 nM
Cc1cc(C)c(CNC(=O)c2cc(N3CCOCC3)nc3c2cnn3C(C)C)c(=O)[nH]1 [Compound B-98] | 1000 to 3000 nM
Cc1cc(C)c(CNC(=O)c2cc(C3=CCN(CCN)CC3)cc3c2cnn3C2CCCC2)c(=O)[nH]1 [Compound D-49] | < 300 nM
C=C(Cn1ncc2c(C(=O)NCc3c(C)cc(C)[nH]c3=O)cc(C3=CC(C)(C)NC(C)(C)C3)nc21)C(=O)OC [Compound B-120] | 1000 to 3000 nM
Cc1cc(C)c(CNC(=O)c2cc(C3=CC(C)(C)NC(C)(C)C3)nc3c2cnn3C2CCCCC2)c(=O)[nH]1 [Compound B-16, 1-cyclohexyl-N-((4,6-dimethyl-2-oxo-1,2-dihydropyridin-3-yl)methyl)-6-(2,2,6,6-tetramethyl-1,2,3,6-tetrahydropyridin-4-yl)-1H-pyrazolo[3,4-b]pyridine-4-carboxamide] | < 300 nM
Cc1cc(C)c(CNC(=O)c2cc(-c3cccc(CN4CCN(C)CC4)c3)cc3c2cnn3C(C)C)c(=O)[nH]1 [Compound C-24] | < 300 nM
Cc1cc(C)c(CNC(=O)c2cc(C3=CCN(C(=O)CN(C)C)CC3)cc3c2cnn3C2CCCC2)c(=O)[nH]1 [Compound D-38] | < 300 nM
Cc1cc(C)c(CNC(=O)c2cc(C(=O)NCCN(C)C)nc3c2cnn3C(C)C)c(=O)[nH]1 [Compound B-140] | 3000 to 10000 nM
Cc1cc(C)c(CNC(=O)c2cc(C3CCN(C(=O)C4CN(C)C4)CC3)nc3c2cnn3C(C)C)c(=O)[nH]1 [Compound B-8, N-((4,6-dimethyl-2-oxo-1,2-dihydropyridin-3-yl)methyl)-1-isopropyl-6-(1-(1-methylazetidine-3-carbonyl)piperidin-4-yl)-1H-pyrazolo[3,4-b]pyridine-4-carboxamide] | < 300 nM
Cc1cc(CN(C)CCN)c(CNC(=O)c2cccc3c2cnn3C2CCCC2)c(=O)[nH]1 [Compound D-76] | 1000 to 3000 nM
Cc1cc(C)c(CNC(=O)c2cc(-c3ccc(COCCCN(C)C)cc3)cc3c2cnn3C2CCCC2)c(=O)[nH]1 [Compound C-4, 1-cyclopentyl-N-((4,6-dimethyl-2-oxo-1,2-dihydropyridin-3-yl)methyl)-6-(4-((3-(dimethylamino)propoxy)methyl)phenyl)-1H-indazole-4-carboxamide] | < 300 nM
Cc1cc(C)c(CNC(=O)c2cc(-c3ccc(CN(C)CCCN(C)C)cc3)nc3c2cnn3C(C)C)c(=O)[nH]1 [Compound A-15, N-((4,6-dimethyl-2-oxo-1,2-dihydropyridin-3-yl)methyl)-6-(4-(((3-(dimethylamino)propyl)(methyl)amino)methyl)phenyl)-1-isopropyl-1H-pyrazolo[3,4-b]pyridine-4-carboxamide] | < 300 nM
CC(=O)N1CCC(n2ncc3c(C(=O)NCc4c(C)cc(C)[nH]c4=O)cc(Br)cc32)CC1 [Compound D-59] | 300 to 1000 nM
Cc1cc(C)c(CNC(=O)c2cc(-c3cccnc3)cc3c2cnn3C2CCCC2)c(=O)[nH]1 [Compound C-21] | < 300 nM
COCc1cc(C)[nH]c(=O)c1CNC(=O)c1cc(C2=CC(C)(C)NC(C)(C)C2)nc2c1cnn2C(C)C [Compound B-21, 1-isopropyl-N-((4-(methoxymethyl)-6-methyl-2-oxo-1,2-dihydropyridin-3-yl)methyl)-6-(2,2,6,6-tetramethyl-1,2,3,6-tetrahydropyridin-4-yl)-1H-pyrazolo[3,4-b]pyridine-4-carboxamide] | 300 to 1000 nM
Cc1cc(C)c(CNC(=O)c2cc(-c3ccc(CN4CCOCC4)cc3)cc3c2cnn3C(C)C)c(=O)[nH]1 [Compound C-5, N-((4,6-dimethyl-2-oxo-1,2-dihydropyridin-3-yl)methyl)-1-isopropyl-6-(4-(morpholinomethyl)phenyl)-1H-indazole-4-carboxamide] | < 300 nM
Cc1cc(C)c(CNC(=O)c2cc(N(C)CCCN(C)C)nc3c2cnn3C(C)C)c(=O)[nH]1 [Compound B-91] | 1000 to 3000 nM
Cc1cc(CN2CCCC2)c(CNC(=O)c2cccc3c2cnn3C2CCCC2)c(=O)[nH]1 [Compound D-82] | 3000 to 10000 nM

Molecule | IC50
Cc1cc(C)c(CNC(=O)c2cc(C3CCN(C(=O)CO)CC3)nc3c2cnn3C(C)C)c(=O)[nH]1 [Compound B-85] | 300 to 1000 nM
CNCC(=O)N1CCC(c2cc(C(=O)NCc3c(C)cc(C)[nH]c3=O)c3cnn(C(C)C)c3n2)CC1 [Compound B-76] | 300 to 1000 nM
Cc1cc(C)c(CNC(=O)c2cc(N)nc3c2cnn3C(C)C)c(=O)[nH]1 [Compound B-125] | 3000 to 10000 nM
Cc1cc(C)c(CNC(=O)c2cc(-c3cccnc3N3CCN(C(=O)OC(C)(C)C)CC3)nc3c2cnn3C(C)C)c(=O)[nH]1 [Compound A-95] | 3000 to 10000 nM
Cc1cc(C)c(CNC(=O)c2cc(C3=CC(C)(C)NC(C)(C)C3)nc3c2cnn3C2C=CCCC2)c(=O)[nH]1 (stereo not drawn) [Compound B-103] | 1000 to 3000 nM
C=C(C)Cn1ncc2c(C(=O)NCc3c(C)cc(C)[nH]c3=O)cc(C3=CC(C)(C)NC(C)(C)C3)nc21 [Compound B-3, N-((4,6-dimethyl-2-oxo-1,2-dihydropyridin-3-yl)methyl)-1-(2-methylallyl)-6-(2,2,6,6-tetramethyl-1,2,3,6-tetrahydropyridin-4-yl)-1H-pyrazolo[3,4-b]pyridine-4-carboxamide] | 1000 to 3000 nM
Cc1cc(C)c(CNC(=O)c2cc(CN3CCNC(=O)C3)cc3c2cnn3C2CCCC2)c(=O)[nH]1 [Compound D-94] | 300 to 1000 nM
Cc1cc(C)c(CNC(=O)c2cc(C3=CC(C)(C)NC(C)(C)C3)nc3c2cnn3C(C)C)c(=O)[nH]1 [Compound B-36] | 300 to 1000 nM
Cc1cc(C)c(CNC(=O)c2cc(-c3ccc(N4CCNCC4)cc3)nc3c2cnn3C(C)C)c(=O)[nH]1 [Compound A-7, N-((4,6-dimethyl-2-oxo-1,2-dihydropyridin-3-yl)methyl)-1-isopropyl-6-(4-(piperazin-1-yl)phenyl)-1H-pyrazolo[3,4-b]pyridine-4-carboxamide] | < 300 nM
Cc1cc(C)c(CNC(=O)c2c(Cl)c(-c3ccc4c(c3)OCCO4)cc3c2cnn3C(C)C)c(=O)[nH]1 [Compound A-47] | 300 to 1000 nM
Cc1cc(C)c(CNC(=O)c2cc(C3CCN(C(=O)C4CNC4)CC3)nc3c2cnn3C(C)C)c(=O)[nH]1 [Compound B-77] | 300 to 1000 nM
Cc1cc(C)c(CNC(=O)c2cc(C3=CCCCC3)nc3c2cnn3C(C)C)c(=O)[nH]1 [Compound B-81] | 300 to 1000 nM
Cc1cc(C)c(CNC(=O)c2cc(Br)cc3c2cnn3C2CCN(C(=O)C3CCOCC3)CC2)c(=O)[nH]1 [Compound D-28] | 300 to 1000 nM
Cc1cc(C)c(CNC(=O)c2cc(-c3ccc(CN4CCOCC4)c(Cl)c3)cc3c2cnn3C2CCCC2)c(=O)[nH]1 [Compound C-28] | < 300 nM
Cc1cc(C)c(CNC(=O)c2cc(N3CCC(N)CC3)nc3c2cnn3C(C)C)c(=O)[nH]1 [Compound B-110] | 1000 to 3000 nM
Cc1cc(C)c(CNC(=O)c2cc(C3=CCN(C(=O)C4CCNCC4)CC3)cc3c2cnn3C2CCCC2)c(=O)[nH]1 [Compound D-39] | < 300 nM
Cc1cc(C)c(CNC(=O)c2cc(-c3ccc(COCCCN4CCOCC4)cc3)cc3c2cnn3C2CCCC2)c(=O)[nH]1 [Compound C-18] | < 300 nM
CCOc1ccc(S(=O)(=O)N2CCN(C)CC2)cc1-c1cc(C(=O)NCc2c(C)cc(C)[nH]c2=O)c2cnn(C3CCCC3)c2c1 [Compound C-27] | < 300 nM
Cc1cc(C)c(CNC(=O)c2cc(C3CCN(C(=O)CN(C)C)CC3)nc3c2cnn3C(C)C)c(=O)[nH]1 [Compound B-57] | 300 to 1000 nM
Cc1cc(C)c(CNC(=O)c2cc(Br)cc3c2cnn3C2CN(C(=O)C(C)(C)C)C2)c(=O)[nH]1 [Compound D-36] | 1000 to 3000 nM
CC(=O)c1cc(C(=O)NCc2c(C)cc(C)[nH]c2=O)c2cnn(C(C)C)c2n1 [Compound B-17, 6-acetyl-N-((4,6-dimethyl-2-oxo-1,2-dihydropyridin-3-yl)methyl)-1-isopropyl-1H-pyrazolo[3,4-b]pyridine-4-carboxamide] | 1000 to 3000 nM
Cc1cc(C)c(CNC(=O)c2cc(-c3cccc(CNCCN)c3)nc3c2cnn3C(C)C)c(=O)[nH]1 [Compound A-26] | 300 to 1000 nM
Cc1cc(C)c(CNC(=O)c2cc(C3=CC(C)(C)NC(C)(C)C3)nc3c2cnn3CC2CC2)c(=O)[nH]1 [Compound B-130] | 3000 to 10000 nM
Cc1cc(C)c(CNC(=O)c2cc(C(F)(F)F)cc3c2cnn3C2CCN(C(=O)C(C)(C)C)CC2)c(=O)[nH]1 [Compound D-23] | < 300 nM
1-cyclopentyl-N-((4,6-dimethyl-2-oxo-1,2-dihydropyridin-3-yl)methyl)-6-(2-ethoxy-4-((4-ethylpiperazin-1-yl)sulfonyl)phenyl)-1H-indazole-4-carboxamide [Compound C-14] | < 300 nM
Cc1cc(C)c(CNC(=O)c2cc(-c3ccc(C(=O)O)cc3)nc3c2cnn3C(C)C)c(=O)[nH]1 [Compound A-53] | 1000 to 3000 nM
C=CCn1ncc2c(C(=O)NCc3c(C)cc(C)[nH]c3=O)cc(C3=CC(C)(C)NC(C)(C)C3)nc21 [Compound B-155] | 10000 to 50000 nM
